According to patent US4843070A, “Substituted thiazetoquinoline-3-carboxylic acids and pharmaceutically acceptable salts thereof” (priority 1986, dated 1989):
Values after ≈ are worked out from the molar mass of the structure shown. Where two headings read alike, the source gives them in different places.

Columns and labels:
[1] = tested on: Proteus mirabilis 181; assay: MIC by agar plate dilution method, Proteus mirabilis 181; format: cell-based; conditions: read-out: minimum inhibitory concentration (MIC)
Experimental: (§1) Test method: The MIC was measured by an agar plate dilution method in accordance with a standard method of Japan Chemotherapeutic Society (cf. Nippon Kagaku Ryoho Gakkaishi, 29(1), 76-79, 1981). Thus, the organisms incubated at 37° C. for 18 hours using sensitivity test broth (Nissei) was diluted to 10^6 CFU/ml using the same broth. […] As a control, enoxacin and ofloxacin were used in Tests 1 and 2, respectively.
(§2) The numbers of the inoculated bacteria were 10^6 in all cases and the unit of the MIC was micrograms/ml.

[2] = tested on: S. epidermidis; assay: MIC by agar plate dilution method, S. epidermidis; format: cell-based; conditions: Staphylococcus epidermidis, Test 2, inoculum 10^6, 37° C., 18 hours, read-out: minimum inhibitory concentration (MIC)
Experimental: as §1, §2

[3] = tested on: K. pneumoniae K-1966; assay: MIC by agar plate dilution method, K. pneumoniae K-1966; format: cell-based; conditions: Klebsiella pneumoniae, read-out: minimum inhibitory concentration (MIC)
Experimental: as §1, §2

[4] = tested on: P. aeruginosa E-2; assay: MIC by agar plate dilution method, P. aeruginosa E-2; format: cell-based; conditions: Pseudomonas aeruginosa, E2; Test 2; P. aeruginosa E-2; inoculum 10^6; 37° C., 18 hours; read-out: minimum inhibitory concentration (MIC)
Experimental: as §1, §2

[5] = tested on: S. aureus 209-P JC; assay: MIC by agar plate dilution method, S. aureus 209-P JC; format: cell-based; conditions: Staphylococcus aureus; Test 2; S. aureus 209-P JC; inoculum 10^6; 37° C., 18 hours; read-out: minimum inhibitory concentration (MIC)
Experimental: as §1, §2

[6] = tested on: E. coli NIHJ JC-2; assay: MIC by agar plate dilution method, E. coli NIHJ JC-2; format: cell-based; conditions: Escherichia coli, read-out: minimum inhibitory concentration (MIC)
Experimental: as §1, §2

[7] = tested on: M. luteus ATCC 9341; assay: MIC by agar plate dilution method, M. luteus ATCC 9341; format: cell-based; conditions: Micrococcus luteus, ATCC9341; Test 2; M. luteus ATTC 9341; inoculum 10^6; 37° C., 18 hours; read-out: minimum inhibitory concentration (MIC)
Experimental: as §1, §2

[8] = tested on: S. marcescens IFO 3736; assay: MIC by agar plate dilution method, S. marcescens IFO 3736; format: cell-based; conditions: Serratia marcescens, IFO3736; Test 2; S. Marcescens IFO 3736; inoculum 10^6; 37° C., 18 hours; read-out: minimum inhibitory concentration (MIC)
Experimental: as §1, §2

[9] = tested on: S. flexneri; assay: MIC by agar plate dilution method, S. flexneri; format: cell-based; conditions: Shigella flexneri, Test 2, inoculum 10^6, 37° C., 18 hours, read-out: minimum inhibitory concentration (MIC)
Experimental: as §1, §2

[10] = tested on: B. subtilis ATCC 6633; assay: MIC by agar plate dilution method, B. subtilis ATCC 6633; format: cell-based; conditions: Bacillus subtilis, ATCC6633; Test 2; B. subtilis ATCC 6633; inoculum 10^6; 37° C., 18 hours; read-out: minimum inhibitory concentration (MIC)
Experimental: as §1, §2

[11] = tested on: infections caused by Gram positive bacteria and Pseudomonas aeruginosa (chronic); conditions: background statement; cited from earlier work
[12] = Test 2, Proteus mirabilis 181, inoculum 10^6, 37° C., 18 hours
[13] = K1966, Test 2, K. pneumoniae K-1966, inoculum 10^6, 37° C., 18 hours
[14] = NIHJJC2, Test 2, E. coli NIHJ JC-2, inoculum 10^6, 37° C., 18 hours

`O=C(O)c1c2n(c3cc(N4CCNCC4)c(F)cc3c1=O)C(c1ccc(F)cc1)S2` (stereo not drawn) [Table 1 (12), 6-Fluoro-1-(4-fluorophenyl)-4-oxo-7-(1-piperazinyl)-4H-(1,3)thiazeto(3,2-a)quinoline-3-carboxylic acid] gave an MIC [1, 12] of 0.2 µg/mL (≈ 0.466 µM), an MIC [2] of 0.39 µg/mL (≈ 0.908 µM) and an MIC [3, 13] of 0.0125 µg/mL (≈ 0.0291 µM). It also gave an MIC [4] of 0.39 µg/mL (≈ 0.908 µM), an MIC [5] of 0.2 µg/mL (≈ 0.466 µM) and an MIC [6, 14] of 0.025 µg/mL (≈ 0.0582 µM). It also gave an MIC [7] of 1.56 µg/mL (≈ 3.63 µM), an MIC [8] of 0.39 µg/mL (≈ 0.908 µM) and an MIC [9] of 0.025 µg/mL (≈ 0.0582 µM). It also gave an MIC [10] of 0.05 µg/mL (≈ 0.116 µM).
`CC1Sc2c(C(=O)O)c(=O)c3cc(F)c(N4CCNCC4)cc3n21` (stereo not drawn) [Table 1 (13), 6-Fluoro-1-methyl-4-oxo-7-(1-piperazinyl)-4H-(1,3)thiazeto(3,2-a)quinoline-3-carboxylic acid] gave an MIC [1, 12] of 0.025 µg/mL (≈ 0.0716 µM), an MIC [2] of 3.13 µg/mL (≈ 8.96 µM) and an MIC ([3]; K1966, 18 h) of 0.0125 µg/mL (≈ 0.0358 µM). It also gave an MIC [4] of 0.2 µg/mL (≈ 0.572 µM), an MIC [5] of 0.1 µg/mL (≈ 0.286 µM) and an MIC ([6]; NIHJJC2, 18 h) of 0.0125 µg/mL (≈ 0.0358 µM). For the same molecule, the MIC [7] was 1.56 µg/mL (≈ 4.46 µM), the MIC [8] was 0.05 µg/mL (≈ 0.143 µM) and the MIC [9] was 0.0125 µg/mL (≈ 0.0358 µM). For the same molecule, the MIC [10] was 0.1 µg/mL (≈ 0.286 µM).
With `COc1c(N2CCN(C)CC2)c(F)cc2c(=O)c(C(=O)O)c3n(c12)C(C)S3` (stereo not drawn) [Table 1 (14), 6-Fluoro-8-methoxy-1-methyl-7-(4-methyl-1-piperazinyl)-4-oxo-4H-(1,3)thiazeto(3,2-a)quinoline-3-carboxylic acid] the MIC ([1]; Proteus mirabilis, 181, 18 h) was 0.0125 µg/mL (≈ 0.0318 µM), the MIC [2] was 0.39 µg/mL (≈ 0.991 µM) and the MIC [3, 13] was 0.025 µg/mL (≈ 0.0635 µM). For the same molecule, the MIC [4] was 0.39 µg/mL (≈ 0.991 µM), the MIC [5] was 0.1 µg/mL (≈ 0.254 µM) and the MIC [6, 14] was 0.05 µg/mL (≈ 0.127 µM). For the same molecule, the MIC [7] was 0.2 µg/mL (≈ 0.508 µM), the MIC [8] was 0.2 µg/mL (≈ 0.508 µM) and the MIC [9] was 0.0125 µg/mL (≈ 0.0318 µM). It also gave an MIC [10] of 0.025 µg/mL (≈ 0.0635 µM).
In the case of `CCn1cc(C(=O)O)c(=O)c2ccc(C)nc21` [nalidixic acid], the “activity against infections caused by Gram positive bacteria and Pseudomonas aeruginosa (chronic)” value (shortened to “activity against infections caused”) [11] is listed as “not active”.
In the case of `CCn1cc(C(=O)O)c(=O)c2cnc(N3CCNCC3)nc21` [pipemidic acid], the “activity against infections caused” value [11] is listed as “not active”.
For `CCn1cc(C(=O)O)c(=O)c2cnc(N3CCCC3)nc21` [piromidic acid], the “activity against infections caused” value [11] is listed as “not active”.
